Laboratory results reported in US20090298077A1, “ASSAY FOR MEASUREMENT OF APURINIC/APYRIMIDINIC (AP) SITES AND FOR SCREENING AP-SITE REACTIVE COMPOUNDS” (priority 2006, published 2009).
Where “and” joins values, the source holds several entries; their conditions need not be identical. Equal values may be shown once.

Legend:
AP-DNA [1] = assay: Reversibility study of the condensation reaction between FARP / MX and AP-DNA; assay type: binding, calf; conditions: result in words, under the assay conditions
Experimental: It was known that the aldehyde group of an AP site could easily condense with aminooxy or hydrazone nucleophiles. However, the reversibility of the reaction was not clear, especially in the presence of another competing nucleophile. To clarify the above, two experiments were designed and carried out as follows: (a) FARP (50 μM in 100 μL of 10 mM phosphate buffer at pH 7.0) reacted with AP-DNA (125 nM in 200 μL of 10 mM phosphate buffer at pH 7.0) for 1 hr, after washing the condensation product (FARP-AP-DNA) incubated with MX (50 μM in 100 μL of 10 mM phosphate buffer at pH 7.0) for various time periods; and (b) MX (50 μM in 100 μL of 10 mM phosphate buffer at pH 7.0) reacted with AP-DNA (125 nM, 200 μL) for 1 hr, after washing the condensation product (MX-AP-DNA) incubated with FARP (50 μM in 100 μL of 10 mM phosphate buffer at pH 7.0) for various time periods.

AP-DNA [2] = assay: FARP AP-site assay: screening of MX-like compounds in competition with FARP; assay type: binding, calf; conditions: 100 nM AP-DNA
Experimental: (§1) 100 μL of 5 μM FARP in phosphate buffer (10 mM, pH 7.0) was added to 200 μL phosphate buffer (10 mM, pH 7.0) containing 10 μg of DNA extracted from cells, individual AP-DNA standard (10, 20, 40, 80, 160, 320, and 640 nM AP), and blank AP-DNA control, respectively. After vortexing, the reaction was allowed to proceed at room temperature for 15 min. At the end of the reaction 200 μL ammonium acetate (7.5M) and 1000 μL ice-cold ethanol (100%) were added. The solution was mixed gently by inverting the tube before keeping it at −20° C. for 30 min. Each tube was centrifuged at 4° C. and 12,000 g for 10 min. The supernatant was poured out carefully so that no loss of FARP-AP-DNA took place. 1200 μL of ice-cold ethanol (70%) was added to each tube to remove the free FARP by centrifugation at 4° C. and 12,000 g for 10 min. This washing step with 70% ice-cold ethanol was repeated two more times. After discarding the supernatant, the FARP-AP-DNA precipitate in the tube was dried at room temperature for 30 min. in a venting hood. The FARP-AP-DNA precipitate was hydrated and resuspended in 200 μL of phosphate buffer (10 mM, pH 9.0) at room temperature for 1 hr. The fluorescence intensity of the resultant FARP-AP-DNA solution was measured by the FluoroMax-2 spectrofluorometer. A calibration curve could be constructed by plotting the fluorescence intensity versus the concentration of AP sites.
One important application of the FARP AP-site assay developed is to screen MX-like compounds for their reactivity to AP site based on known chemical structures. In this work, four compounds with aminooxy or hydrazone group (i.e., MXL1O1, MXLIO2, MXLI 03, and MXL 104) together with MX were tested. The detail experiment included mixing equal concentration and volume of each individual test compound with FARP (50 μM in 100 μL of 10 mM phosphate buffer at pH 7.0) before reacting with 200 µL of 100 nM AP-DNA. The remaining experimental procedures were the same as described in the Experimental section. The data of fluorescence intensity reduced by MX and MX-like compounds were given in Table XI and the fluorescence intensity of the test compounds were compared in FIG. 19.

[3] = tested on: human nonadherent mononuclear cells; assay: ARP assay of AP sites in DNA from drug-treated human nonadherent mononuclear cells; assay type: cell-based; conditions: human nonadherent cell, 2 hrs at 37° C., MX 12.5 mM where combined
Source text: (§2) An ARP method modified for the slot-blot vacuum filter device was used in this work. […]

SW480 colon cancer cells [4] = assay: FARP assay of AP sites in DNA from drug-treated SW480 cells; assay type: cell-based; conditions: 2 hrs at 37° C., MX 12.5 mM where combined
Experimental: as §1
(§3) Adherent SW480 colon cancer cells (from the American Type Culture Collection (Manassas, Va., USA), and human nonadherent mononuclear cells from heparinized peripheral blood of a normal donor, which were purified by the Ficoll-Hypaque density gradient centrifugation technique, were used in the in vitro experiments of TMZ and MX.
(§4) The cells (5×10^6 cells) were plated in 100-mm culture dishes and treated by TMZ alone at various concentrations (0, 187, 375, 750, and 1500 μM), and together with MX (12.5 mM) for 2 hrs at 37° C. At the end of treatment, the cells were washed by either rinsing the SW480 cells on dishes (SW480) or centrifugation of the human cells in tubes with the media. […]

[5] = tested on: human nonadherent mononuclear cells; assay: FARP assay of AP sites in DNA from drug-treated human nonadherent mononuclear cells; assay type: cell-based; conditions: human nonadherent cell, 2 hrs at 37° C., MX 12.5 mM where combined
Experimental: as §1, §3
as §4, with “media. After plating the cells in dishes with fresh media, 3 mM MX was added to the dishes that were treated with TMZ and MX together. The cells were harvested by centrifugation at […] after the treatment of 3 mM MX.” for “media.”

SW480 colon cancer cells [6] = assay: ARP assay of AP sites in DNA from drug-treated SW480 cells; assay type: cell-based; conditions: 2 hrs at 37° C., MX 12.5 mM where combined
Source text: as §2

[7] = test compound mixed with FARP at equal concentration and volume (50 μM in 100 μL, pH 7.0)

Row | Structure (SMILES) | reversibility of the condensation reaction with aldehyde group of AP-DNA (AP-DNA [1]) | Normalized Fluorescence Intensity % (AP-DNA [2]; relative to FARP alone = 100, equal concentration of test compound and FARP) | Fluorescence Intensity Individual Measurement (AP-DNA [2]; [7]) | Fluorescence Intensity Mean (AP-DNA [2]; [7]) | ARP Assay Band Intensity/10^3 ([3]; TMZ 187 μM) | ARP Assay Band Intensity/10^3 ([3]; TMZ 375 μM) | ARP Assay Band Intensity/10^3 ([3]; TMZ 750 μM) | ARP Assay Band Intensity/10^3 ([3]; TMZ 1500 μM) | FARP Assay Fluorescence Intensity/10^4 (SW480 colon cancer cells [4]; SW480, TMZ 187 μM) | FARP Assay Fluorescence Intensity/10^4 (SW480 colon cancer cells [4]; SW480, TMZ 375 μM) | FARP Assay Fluorescence Intensity/10^4 (SW480 colon cancer cells [4]; SW480, TMZ 750 μM) | FARP Assay Fluorescence Intensity/10^4 ([5]; TMZ 187 μM) | FARP Assay Fluorescence Intensity/10^4 ([5]; TMZ 375 μM) | FARP Assay Fluorescence Intensity/10^4 ([5]; TMZ 750 μM) | FARP Assay Fluorescence Intensity/10^4 ([5]; TMZ 1500 μM) | ARP Assay Band Intensity/10^3 (SW480 colon cancer cells [6]; SW480, TMZ 187 μM) | ARP Assay Band Intensity/10^3 (SW480 colon cancer cells [6]; SW480, TMZ 375 μM) | ARP Assay Band Intensity/10^3 (SW480 colon cancer cells [6]; SW480, TMZ 750 μM)
1 | NNC(=S)Nc1ccc(-c2c3ccc(=O)cc-3oc3cc(O)ccc23)c(C(=O)O)c1 [FARP, fluorescein-5-thiosemicarbazide] | irreversible | 100.0% | 17080.0 and 16892.0 | 16986.0 | – | – | – | – | – | – | – | – | – | – | – | – | – | –
2 | Cn1nnc2c(C(N)=O)ncn2c1=O [TMZ, 3,4-dihydro-3-methyl-4-oxoimidazo[5,1-d]-as-tetrazine-8-carboxamide] | – | – | – | – | 2.201 | 3.524 | 4.352 | 5.844 | 2.428 | 3.691 | 5.310 | 1.622 | 3.138 | 4.201 | 15.77 | 1.420 | 2.723 | 5.233
